Read-outs that look alike come from different tables or passages of the source.
Target: T1, F508delCFTR (Homo sapiens, UniProt P13569, DEL508-508)
T1 construct: expressed in transfected cells; host or cells: CFBE4lo-F508delCFTR-HRP cells (human lung derived epithelial cell line, doxycycline-inducible)
Assay: Cell Surface Expression-Horse Radish Peroxidase (CSE-HRP) Assay
Format: cell-based
Conditions: for EC50: CFBE4lo-F508delCFTR-HRP cells, 18-24 hours at 33° C.; for Maximum % activity (with co-corrector): with co-corrector 2 μM
Description: Cell Surface Expression-Horse Radish Peroxidase (CSE-HRP) Assay
A cellular assay for measuring the F508delCFTR cell surface expression after correction with test compounds either without or with a co-corrector (2 μM of 3-[(2R,4R)-4-({[1-(2,2-difluoro-1,3-benzodioxol-5-yl)cyclopropyl]carbonyl}amino)-7-methoxy-3,4-dihydro-2H-chromen-2-yl]benzoic acid), was developed in human lung derived epithelial cell line (CFBE4lo−) (Veit G et al, (2012) Mol Biol Cell. 23(21): 4188-4202). The development was achieved by expressing the F508delCFTR mutation along with a horseradish peroxidase (HRP) in the fourth exofacial loop, and then measuring the HRP activity using luminescence readout from these cells, CFBE4lo-F508delCFTR-HRP, that were incubated overnight with the test corrector compounds, either without or with the co-corrector. For this primary assay, the CFBE4lo-F508delCFTR-HRP cells were plated in 384-well plates (Greiner Bio-one; Cat 781080) at 4,000 cells/well along with 0.5 μg/mL doxycycline to induce the F508delCFTR-HRP expression and further incubated at 37° C., 5% CO2 for 72 hours. The test compounds were then added either without or with a co-corrector at the required concentrations and further incubated for 18-24 hours at 33° C. The highest concentration tested was 20 μM with an 8-point concentration response curve using a 3-fold dilution in both the test compound without or with the co-corrector. Three replicate plates were run to determine one EC50. All plates contained negative controls (dimethyl sulfoxide, DMSO) and positive control (2 μM of 3-[(2R,4R)-4-({[1-(2,2-difluoro-1,3-benzodioxol-5-yl)cyclopropyl]carbonyl}amino)-7-methoxy-3,4-dihydro-2H-chromen-2-yl]benzoic acid) as well as on-plate concentration response of the positive control. Post incubation, the plates were washed 5× times with Dulbecco's phosphate buffered saline (DPBS), followed by the addition of the HRP substrate, luminol (50 μL), and measuring the HRP activity using luminescence readout on EnVision® Multilabel Plate Reader (Perkin Elmer; product number 2104-0010). The raw counts from the experiment were analyzed using Accelrys® Assay Explorer v3.3.
Z′ greater than 0.5 was used as passing quality control criteria for the plates.
The Z′ is defined as: 1−[3*SDPositive Control+3*SDNegative Control/Absolute(Meanpostivie Control−MeanNegative Control)] wherein “SD” is standard deviation.
The % activity measured at each of the 8 test concentrations of the test compound added either without or with a co-corrector (2 μM of 3-[(2R,4R)-4-({[1-(2,2-difluoro-1,3-benzodioxol-5-yl)cyclopropyl]carbonyl}amino)-7-methoxy-3,4-dihydro-2H-chromen-2-yl]benzoic acid) was normalized to the on-plate positive control using the following formulae: % activity(Test compound without co-corrector)=[(test compound without co-corrector response−DMSO response)/(positive control response−DMSO response)]*100 % activity(Test compound with co-corrector)=[(test compound with co-corrector response−DMSO response)/(positive control response−DMSO response)]*100
The maximum % activity achieved for the test compound either without or with a co-corrector at any tested concentration is presented in Table 1 along with the respective EC50's calculated using the following general sigmoidal curve with variable Hill slope equation (described as Model 42 in the Accelrys® Assay Explorer v3.3 software): y=(a−d)/(1+(x/c)^b)+d
General sigmoidal curve with concentration, response, top, bottom, EC50 and Hill slope. This model describes a sigmoidal curve with an adjustable baseline, a. The equation can be used to fit curves where response is either increasing or decreasing with respect to the independent variable, “x”.
“x” is a concentration of drug under test.
“a” is the maximum response, and “d” is the minimum response
“c” is the inflection point (EC50) for the curve. That is, “y” is halfway between the lower and upper asymptotes when x=c.
“b” is the slope-factor or Hill coefficient. […]

[1] = test compound without co-corrector, HRP luminescence readout, read-out: EC50 (without co-corrector)
[2] = test compound without co-corrector, maximum at any tested concentration (up to 20 μM), normalized to on-plate positive control (2 μM co-corrector)
[3] = with co-corrector 2 μM 3-[(2R,4R)-4-({[1-(2,2-difluoro-1,3-benzodioxol-5-yl)cyclopropyl]carbonyl}amino)-7-methoxy-3,4-dihydro-2H-chromen-2-yl]benzoic acid, read-out: EC50 (with co-corrector)
[4] = maximum at any tested concentration (up to 20 μM), normalized to on-plate positive control (2 μM co-corrector)

T1 sequence (P13569 with tags, fused parts or gaps DEL508-508): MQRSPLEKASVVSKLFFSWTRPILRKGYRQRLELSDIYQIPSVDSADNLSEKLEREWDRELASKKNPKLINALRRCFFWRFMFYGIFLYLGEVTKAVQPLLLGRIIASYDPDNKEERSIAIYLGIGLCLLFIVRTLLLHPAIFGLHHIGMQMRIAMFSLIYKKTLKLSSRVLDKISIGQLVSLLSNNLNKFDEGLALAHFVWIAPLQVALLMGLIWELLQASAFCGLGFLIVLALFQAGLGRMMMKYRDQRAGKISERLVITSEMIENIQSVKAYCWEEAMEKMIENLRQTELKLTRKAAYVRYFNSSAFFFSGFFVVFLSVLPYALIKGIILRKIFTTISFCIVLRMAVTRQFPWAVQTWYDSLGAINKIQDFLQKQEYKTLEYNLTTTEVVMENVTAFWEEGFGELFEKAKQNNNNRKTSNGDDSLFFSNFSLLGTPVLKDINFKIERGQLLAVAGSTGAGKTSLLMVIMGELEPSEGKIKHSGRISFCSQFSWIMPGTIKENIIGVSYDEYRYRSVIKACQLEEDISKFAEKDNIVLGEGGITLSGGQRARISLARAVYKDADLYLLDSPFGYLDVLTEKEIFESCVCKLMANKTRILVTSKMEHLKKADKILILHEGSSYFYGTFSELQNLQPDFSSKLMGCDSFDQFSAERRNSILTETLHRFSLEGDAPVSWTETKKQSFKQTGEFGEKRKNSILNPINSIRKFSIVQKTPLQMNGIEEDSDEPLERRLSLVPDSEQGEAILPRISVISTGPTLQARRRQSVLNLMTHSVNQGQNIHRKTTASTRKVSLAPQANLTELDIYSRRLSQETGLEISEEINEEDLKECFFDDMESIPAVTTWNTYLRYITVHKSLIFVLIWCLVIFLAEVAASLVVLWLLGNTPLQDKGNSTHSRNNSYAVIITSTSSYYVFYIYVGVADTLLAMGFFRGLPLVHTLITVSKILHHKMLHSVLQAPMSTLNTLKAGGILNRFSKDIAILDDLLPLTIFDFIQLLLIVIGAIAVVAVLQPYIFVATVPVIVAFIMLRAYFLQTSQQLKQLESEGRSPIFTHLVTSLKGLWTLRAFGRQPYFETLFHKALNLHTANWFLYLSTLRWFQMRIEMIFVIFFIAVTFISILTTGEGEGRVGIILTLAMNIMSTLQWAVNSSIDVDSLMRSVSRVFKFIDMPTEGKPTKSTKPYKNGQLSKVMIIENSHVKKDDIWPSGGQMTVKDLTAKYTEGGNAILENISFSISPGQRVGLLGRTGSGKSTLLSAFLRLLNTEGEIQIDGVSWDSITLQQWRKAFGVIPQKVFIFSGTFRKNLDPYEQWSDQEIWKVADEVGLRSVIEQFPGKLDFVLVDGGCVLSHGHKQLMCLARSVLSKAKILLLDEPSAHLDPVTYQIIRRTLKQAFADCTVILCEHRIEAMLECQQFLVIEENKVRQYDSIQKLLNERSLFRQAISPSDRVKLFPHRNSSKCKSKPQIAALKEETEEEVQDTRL

| Compound | EC50 [1] [µM] | EC50 [3] [µM] | Maximum % activity (with co-corrector) [4] | Emax [2] [%] | Maximum % activity (without co-corrector) [2] |
| --- | --- | --- | --- | --- | --- |
| 4-methoxy-N-(naphthalene-1-sulfonyl)-5-(trifluoromethyl)-2,3-dihydro-1-benzofuran-3-carboxamide and 4-methoxy-N-(naphthalene-1-sulfonyl)-7-(trifluoromethyl)-2,3-dihydro-1-benzofuran-3-carboxamide [Example 40] | < 3 | < 3 | +++ (≥350) | – | +++ (≥150) |
| COc1ccc(Cl)c2c1[C@@H](C(=O)NS(=O)(=O)c1cccc3ccccc13)CO2 (single isomer, unassigned) [Example 67] | 3 to 10 | < 3 | +++ (≥350) | ≥ 150 | – |
| COc1ccc(Cl)c2c1[C@H](C(=O)NS(=O)(=O)c1cccc3ccccc13)CO2 (single isomer, unassigned) [Example 68] | 3 to 10 | < 3 | +++ (≥350) | ≥ 150 | – |
| COc1ccc(Br)c2c1[C@@H](C(=O)NS(=O)(=O)c1cccc3ccccc13)CO2 (single isomer, unassigned) [Example 73] | 3 to 10 | 3 to 10 | ++ (≥150 and <350) | 50 to 150 | – |
| COc1ccc(Br)c2c1[C@H](C(=O)NS(=O)(=O)c1cccc3ccccc13)CO2 (single isomer, unassigned) [Example 74] | < 3 | < 3 | +++ (≥350) | ≥ 150 | – |
| O=C(NS(=O)(=O)c1cccc2ccccc12)C1(c2ccccc2)CCOc2ccc(Br)cc21 (stereo not drawn) [Example 1, 6-bromo-N-(naphthalene-1-sulfonyl)-4-phenyl-3,4-dihydro-2H-1-benzopyran-4-carboxamide] | < 3 | < 3 | +++ (≥350) | ≥ 150 | – |
| CCSC[C@H]1C[C@@](C(=O)NS(=O)(=O)c2cccc3ccccc23)(c2ccccc2)c2ccccc2O1 [Example 2, (2R,4R)-2-[(ethylsulfanyl)methyl]-N-(naphthalene-1-sulfonyl)-4-phenyl-3,4-dihydro-2H-1-benzopyran-4-carboxamide] | < 3 | < 3 | +++ (≥350) | 50 to 150 | – |
| COc1ccc2c(c1)C(C(=O)NS(=O)(=O)c1cccc3ccccc13)(c1ccccc1)CC(C)(C)O2 (stereo not drawn) [Example 3, 6-methoxy-2,2-dimethyl-N-(naphthalene-1-sulfonyl)-4-phenyl-3,4-dihydro-2H-1-benzopyran-4-carboxamide] | < 3 | < 3 | +++ (≥350) | ≥ 150 | – |
| COc1ccc2c(c1)C(C(=O)NS(=O)(=O)c1cccc3ccccc13)(c1ccccc1)CCO2 (stereo not drawn) [Example 4, 6-methoxy-N-(naphthalene-1-sulfonyl)-4-phenyl-3,4-dihydro-2H-1-benzopyran-4-carboxamide] | < 3 | < 3 | +++ (≥350) | 50 to 150 | – |
| Cc1cc2c(c(C)c1C(=O)c1ccccc1)C(C(=O)NS(=O)(=O)c1cccc3ccccc13)CCO2 (stereo not drawn) [Example 5, 6-benzoyl-5,7-dimethyl-N-(naphthalene-1-sulfonyl)-3,4-dihydro-2H-1-benzopyran-4-carboxamide] | < 3 | < 3 | +++ (≥350) | ≥ 150 | – |
| O=C(NS(=O)(=O)c1cccc2ccccc12)C1(c2ccccc2)COc2ccccc21 (stereo not drawn) [Example 6, N-(naphthalene-1-sulfonyl)-3-phenyl-2,3-dihydro-1-benzofuran-3-carboxamide] | < 3 | < 3 | +++ (≥350) | 50 to 150 | – |
| O=C(NS(=O)(=O)c1cccc2ccccc12)C1CCOc2c(Cl)cccc21 (stereo not drawn) [Example 7, 8-chloro-N-(naphthalene-1-sulfonyl)-3,4-dihydro-2H-1-benzopyran-4-carboxamide] | 3 to 10 | 3 to 10 | +++ (≥350) | ≥ 150 | – |
| CCC1(C(=O)NS(=O)(=O)c2cccc3ccccc23)COc2cccc(OC)c21 (stereo not drawn) [Example 8, 3-ethyl-4-methoxy-N-(naphthalene-1-sulfonyl)-2,3-dihydro-1-benzofuran-3-carboxamide] | 3 to 10 | < 3 | +++ (≥350) | ≥ 150 | – |

More lines, main results first:

| EC50 [1] [µM] | EC50 [3] [µM] | Maximum % activity (with co-corrector) [4] | Emax [2] [%] | Compound | Maximum % activity (without co-corrector) [2] |
| --- | --- | --- | --- | --- | --- |
| 3 to 10 | < 3 | +++ (≥350) | ≥ 150 | COc1ccc(C2CCC2)c2c1C(C(=O)NS(=O)(=O)c1cccc3nc(C)ccc13)CCO2 (racemic) [Example 75, 8-cyclobutyl-5-methoxy-N-(2-methylquinoline-5-sulfonyl)-3,4-dihydro-2H-1-benzopyran-4-carboxamide] | – |
| 3 to 10 | 3 to 10 | +++ (≥350) | ≥ 150 | COc1ccc(C2CCC2)c2c1[C@@H](C(=O)NS(=O)(=O)c1cccc3ncccc13)CO2 (single isomer, unassigned) [Example 82] | – |
| < 3 | < 3 | +++ (≥350) | ≥ 150 | COc1ccc(C2CCC2)c2c1[C@H](C(=O)NS(=O)(=O)c1cccc3ncccc13)CO2 (single isomer, unassigned) [Example 83] | – |
| 3 to 10 | < 3 | +++ (≥350) | 50 to 150 | COc1ccc(C2CCC2)c2c1[C@@H](C(=O)NS(=O)(=O)c1cccc3cnn(C)c13)CO2 (single isomer, unassigned) [Example 94] | – |
| < 3 | < 3 | +++ (≥350) | ≥ 150 | COc1ccc(C2CCC2)c2c1[C@H](C(=O)NS(=O)(=O)c1cccc3c1CCCN3)CC(C)(C)O2 (single isomer, unassigned) [Example 97] | – |
| 3 to 10 | 3 to 10 | +++ (≥350) | 50 to 150 | COc1ccc(C2CCC2)c2c1[C@@H](C(=O)NS(=O)(=O)c1cccc3c1NCCC3)CO2 (single isomer, unassigned) [Example 98] | – |
| < 3 | < 3 | +++ (≥350) | ≥ 150 | COc1ccc(C2CCC2)c2c1OCC[C@H]2C(=O)NS(=O)(=O)c1cccc2ncccc12 (single isomer, unassigned) [Example 106] | – |
| 3 to 10 | 3 to 10 | ++ (≥150 and <350) | < 50 | COc1ccc(C2CCC2)c2c1OCC[C@@H]2C(=O)NS(=O)(=O)c1cccc2ncccc12 (single isomer, unassigned) [Example 107] | – |

Reference: US10428017B2, “Modulators of the cystic fibrosis transmembrane conductance regulator protein and methods of use” (AbbVie S.à.r.l., priority 2017, dated 2019)
